The numbers were not newly measured in patent US8895061B2, “Compositions comprising carisoprodol and methods of use thereof” (Meda Pharmaceuticals Inc., priority 2007, dated 2014), which cites them from elsewhere.

Structures are written as SMILES.

For data set [1] the following is noted: for influence of polymorphic debrisoquine hydroxylation on elimination: poor metabolizers of debrisoquine, single oral doses.
For data set [2] the following is noted: in vivo.

For `CCCC(C)(COC(N)=O)COC(=O)NC(C)C` (centres unmarked) [carisoprodol, N-isopropyl-2-methyl-2-propyl-1,3-propanediol dicarbamate], the “influence of polymorphic debrisoquine hydroxylation on elimination” value in data set [1] is given as “did not influence the elimination”. Besides, the “mean serum clearance of carisoprodol” value in data set [1] (poor metabolizers of mephenyloin compared with extensive metabolizers, single oral dose 700 mg carisoprodol) was “four times lower”. Besides, in data set [2], the onset of action result is reported as “rapid”.

Consider `CCCC(C)(COC(N)=O)COC(N)=O` [meprobamate], for which the “influence of polymorphic debrisoquine hydroxylation on elimination” value in data set [1] is on record as “did not influence the elimination”. For the same compound, in data set [1] (poor metabolizers of mephenyloin compared with extensive metabolizers, single oral dose 400 mg meprobamate), the “mean serum clearance of meprobamate” value is reported as “did not differ between the two groups”.
